Data: US20140242093A1, “METHODS AND COMPOSITIONS FOR MODULATING THE INNATE IMMUNE RESPONSE AND/OR MYOGENESIS IN A MAMMALIAN SUBJECT” (FRED HUTCHINSON CANCER RESEARCH CENTER, priority 2011, published 2014)

System: control human primary myoblasts
Test: Expression microarray of primary myoblasts transduced with lentivirus carrying DUX4-fl, DUX4-s or GFP
Description: Primary human myoblasts were collected and cultured as previously described (Snider et al., 2010). Primary myoblasts were maintained at or below 70% confluency for proliferation. For differentiation, cells were allowed to reach 95-100% confluency in growth medium. Once confluency was reached, the cells were changed to differentiation medium (F10 media supplemented with 1% horse serum, 10 μg/mL insulin, and 10 μg/mL transferrin, penicillin/streptomycin) and maintained for 4 days. Human RD cells were grown in DMEM in 10% bovine calf serum (Hyclone) and penicillin/streptomycin. The primary myoblasts were transduced with lentivirus carrying DUX-fl, DUX4- or GFP (MOI=15).
Expression microarrays were performed on the transduced cells at 24 hours after transduction as follows. […] Samples were analyzed by Illumina Human Whole Genome microarrays. Probe intensities were corrected, normalized, and summarized by the Lumi package of Bioconductor (Du et al., 2008). Differentially expressed genes were identified by the LIMMA package of Bioconductor (Wettenhall and Smyth, 2004). Gene set enrichment analysis (GSEA) was performed using the Bioconductor GOstats package (Falcon and Gentleman, 2007).

How did the GPBAR1 expression fc (Refseq NM_170699.2) turn out when “DUX4-fl: full-length DUX4 protein (SEQ ID NO:110), expressed from lentiviral or pCS2 vectors or in vitro translated” was run?
The GPBAR1 expression fc was 1.936.

And the NLRX1 fc (Refseq NM_170722.1)?
Its NLRX1 fc is −1.167.

And the “fc of HSCB (expression array)” value (Refseq NM_172002.3)?
The value was −1.009.

And the “fc of ZNF650 (expression array)” value (Refseq NM_172070.2)?
The value was −1.016.

What about the “fc of IL4I1 (expression array)” value (Refseq NM_172374.1) of the same substance?
Its value is −0.7571.

What about the KLF17 expression fc (Refseq NM_173484.3) of the same substance?
The KLF17 expression fc was 1.779.

What about the “fc of RCOR2 (expression array)” value (Refseq NM_173587.2) of the same substance?
Its value is −1.051.

And the “fc of DCBLD1 (expression array)” value (Refseq NM_173674.1)?
The value was −0.667.

What about the WARS expression fc (Refseq NM_173701.1, cultured human skeletal muscle) of the same substance?
The WARS expression fc was −1.917.

And the “fc of C3orf38 (expression array)” value (Refseq NM_173824.2)?
The value was −0.5458.

What about the “fc of UBR1 (expression array)” value (Refseq NM_174916.1) of the same substance?
Its value is −0.08618.

What about the “fc of C4orf34 (expression array)” value (Refseq NM_174921.1) of the same substance?
Its value is −1.044.

What about the FRMD3 fc (Refseq NM_174938.3) of the same substance?
Its FRMD3 fc is −1.116.

And the MT1E expression fc (Refseq NM_175617.3, cultured human skeletal muscle)?
The MT1E expression fc was −2.067.

And the TXLNA fc (Refseq NM_175852.3)?
The TXLNA fc was −1.157.

What about the MT1M expression fc (Refseq NM_176870.2, cultured human skeletal muscle) of the same substance?
The MT1M expression fc was −2.921.

And the PPAP2A fc (Refseq NM_176895.1)?
Its PPAP2A fc is −1.106.

What about the CSE1L expression fc (Refseq NM_177436.1) of the same substance?
Its CSE1L expression fc is 2.937.

And the PPM1B expression fc (Refseq NM_177968.2)?
Its PPM1B expression fc is 1.831.

And the “fc of STARD13 (expression array)” value (Refseq NM_178006.1)?
Its value is −1.001.

What about the RILPL1 fc (Refseq NM_178314.2) of the same substance?
The RILPL1 fc was −1.072.

What about the HIF1A fc (Refseq NM_181054.1) of the same substance?
The HIF1A fc was −1.15.

What about the ID1 fc (Refseq NM_181353.1) of the same substance?
The ID1 fc was −1.166.

And the C1QTNF3 expression fc (Refseq NM_181435.4)?
Its C1QTNF3 expression fc is 1.974.

And the PPP2R2B expression fc (Refseq NM_181677.1)?
Its PPP2R2B expression fc is 4.13.

What about the PPP2R2C fc (Refseq NM_181876.2) of the same substance?
The PPP2R2C fc was −1.064.

And the BCL9L fc (Refseq NM_182557.2)?
The BCL9L fc was −1.111.

What about the “fc of IRF2BP2 (expression array)” value (Refseq NM_182972.2) of the same substance?
The value was −1.041.

What about the “fc of TRIM69 (expression array)” value (Refseq NM_182985.3) of the same substance?
Its value is −1.002.

And the “fc of TRIM55 (expression array)” value (Refseq NM_184086.1)?
Its value is −1.053.

What about the RBM39 expression fc (Refseq NM_184234.1) of the same substance?
Its RBM39 expression fc is 1.8.

What about the INO80C expression fc (Refseq NM_194281.3) of the same substance?
The INO80C expression fc was 1.98.

What about the SPTY2D1 expression fc (Refseq NM_194285.2) of the same substance?
The SPTY2D1 expression fc was 3.286.

And the “fc of RNASE4 (expression array)” value (Refseq NM_194431.1)?
The value was −1.06.

And the BID fc (Refseq NM_197966.1)?
The BID fc was −1.078.

And the “fc of MZF1 (expression array)” value (Refseq NM_198055.1)?
Its value is −1.004.

What about the “fc of ARSK (expression array)” value (Refseq NM_198150.1) of the same substance?
The value was −0.8435.

And the “fc of SRC (expression array)” value (Refseq NM_198291.1)?
The value was −1.041.

And the “fc of APOOL (expression array)” value (Refseq NM_198450.3)?
Its value is −0.5757.

What about the DENND2C expression fc (Refseq NM_198459.2) of the same substance?
Its DENND2C expression fc is 2.609.

And the TPRX1 expression fc (Refseq NM_198479.2)?
Its TPRX1 expression fc is 4.483.

And the AGRN expression fc (Refseq NM_198576.2, cultured human skeletal muscle)?
Its AGRN expression fc is −2.612.

And the C1QTNF1 expression fc (Refseq NM_198594.1, cultured human skeletal muscle)?
Its C1QTNF1 expression fc is −3.846.

And the “fc of SERPINB8 (expression array)” value (Refseq NM_198833.1)?
The value was −0.1046.

What about the SEMA4B expression fc (Refseq NM_198925.1, cultured human skeletal muscle) of the same substance?
The SEMA4B expression fc was −1.94.

What about the C9orf169 expression fc (Refseq NM_199001.1, cultured human skeletal muscle) of the same substance?
The C9orf169 expression fc was −2.509.

What about the T1560 expression fc (Refseq NM_199048.1) of the same substance?
The T1560 expression fc was 2.769.

What about the XAF1 expression fc (Refseq NM_199139.1, cultured human skeletal muscle) of the same substance?
Its XAF1 expression fc is −3.622.

What about the SAA1 expression fc (Refseq NM_199161.1, cultured human skeletal muscle) of the same substance?
The SAA1 expression fc was −4.138.

What about the C20orf117 fc (Refseq NM_199181.2) of the same substance?
The C20orf117 fc was −1.08.

What about the “fc of TMEM189-UBE2V1 (expression array)” value (Refseq NM_199203.1) of the same substance?
Its value is −1.036.

What about the DGKA expression fc (Refseq NM_201554.1, cultured human skeletal muscle) of the same substance?
The DGKA expression fc was −1.955.

And the “fc of ZMYM3 (expression array)” value (Refseq NM_201599.1)?
Its value is −1.022.

What about the FBXO33 expression fc (Refseq NM_203301.1) of the same substance?
The FBXO33 expression fc was 3.22.

And the SYNJ1 expression fc (Refseq NM_203446.1)?
The SYNJ1 expression fc was 2.433.

What about the “fc of CMPK2 (expression array)” value (Refseq NM_207315.2) of the same substance?
The value was −0.8826.

And the CYP4V2 fc (Refseq NM_207352.2)?
The CYP4V2 fc was −1.159.

What about the “fc of C15orf52 (expression array)” value (Refseq NM_207380.1) of the same substance?
The value was −1.016.

What about the FLJ45337 expression fc (Refseq NM_207465.1) of the same substance?
The FLJ45337 expression fc was 3.685.

And the ATP2B1 fc (Refseq NM_001001323.1)?
The ATP2B1 fc was −1.082.

What about the FLJ45139 expression fc (Refseq NM_001001692.1) of the same substance?
Its FLJ45139 expression fc is 2.451.

What about the OR2T34 expression fc (Refseq NM_001001821.1) of the same substance?
The OR2T34 expression fc was 4.519.

And the “fc of GPM6B (expression array)” value (Refseq NM_001001995.1)?
Its value is −0.3998.

And the NT5C1B expression fc (Refseq NM_001002006.1)?
Its NT5C1B expression fc is 3.495.

And the “fc of NT5C3 (expression array)” value (Refseq NM_001002010.1)?
The value was −0.6592.

And the RAB11FIP1 expression fc (Refseq NM_001002814.1)?
The RAB11FIP1 expression fc was 1.987.

And the “fc of LEPR (expression array)” value (Refseq NM_001003679.1)?
Its value is −1.

What about the ZNF705A expression fc (Refseq NM_001004328.1) of the same substance?
The ZNF705A expression fc was 6.832.

And the HIST2H3A expression fc (Refseq NM_001005464.2)?
The HIST2H3A expression fc was 4.945.

And the GBA fc (Refseq NM_001005742.1)?
Its GBA fc is −1.065.

What about the SIAH1 expression fc (Refseq NM_001006610.1) of the same substance?
The SIAH1 expression fc was 3.699.

What about the OPTN fc (Refseq NM_001008213.1) of the same substance?
The OPTN fc was −1.113.

What about the SLC7A2 expression fc (Refseq NM_001008539.2, cultured human skeletal muscle) of the same substance?
Its SLC7A2 expression fc is −2.482.

And the CXCR4 expression fc (Refseq NM_001008540.1)?
Its CXCR4 expression fc is 2.004.

What about the “fc of CLSTN1 (expression array)” value (Refseq NM_001009566.1) of the same substance?
The value was −1.009.

What about the PRAMEF4 expression fc (Refseq NM_001009611.1) of the same substance?
The PRAMEF4 expression fc was 7.06.

What about the C6orf191 expression fc (Refseq NM_001010876.1) of the same substance?
Its C6orf191 expression fc is 2.091.

And the PRAMEF6 expression fc (Refseq NM_001010889.2)?
The PRAMEF6 expression fc was 5.826.

What about the PRAMEF9 expression fc (Refseq NM_001010890.1) of the same substance?
Its PRAMEF9 expression fc is 7.131.

And the PRAMEF8 expression fc (Refseq NM_001012276.1)?
The PRAMEF8 expression fc was 3.701.

And the PRAMEF7 expression fc (Refseq NM_001012277.1)?
Its PRAMEF7 expression fc is 7.631.
